Consider three molecules from patent publication US5391800A, “Method for inhibition of cell motility by sphingosine-1-phosphate, its derivatives and mimetics and method of synthesizing sphingosine-1-phosphate and its derivatives” (The Biomembrane Institute, priority 1993, dated 1995).

One data set relates to B16/F1 melanoma cells. Description: Toxicity to B16/F1 melanoma cells, trypan blue exclusion. The class given is cell-based, mouse. The following applies: for Toxicity: 45-50 μM, B16/F1 cells, 1 hour. Here is the method:
(§1) Effects of SPN derivatives on protein kinase C activity and cell growth of B16/F1 cells was also investigated. […] Toxicity of these compounds to B16/F1 cells and human neutrophils was also examined using a trypan blue exclusion assay after 1 hour incubation with the compounds.

Test in data set [1]: as above
The class given is cell-based, mouse. The following applies: mouse, b16/f1 cells; B16/F1; 50 μM; 1 hour incubation; control 99; read-out: Cell viability (%). Here is the method: as §1

For data set [2], the system named is human neutrophils. Nature of the data set: Toxicity to human neutrophils, trypan blue exclusion. As to conditions: 45-50 μM; human neutrophils; 1 hour. The class given is cell-based. Here is the method:
as §1

Test in data set [3]: as above
The following applies: human, neutrophils; neutrophil; 45 μM; 1 hour incubation; control 99; read-out: Cell viability (%). The class given is cell-based. Here is the method: as §1

A further data set concerns mouse 3T3 cell. The following applies: literature; cited from earlier work.
Data set [4] has as its system B16/F1 cells. Description: Phagokinetic activity of B16/F1 cells on gold sol-coated plates. The class given is cell-based, mouse. As to conditions: FIGS. 11A-F, SPN-1-P at 1.0 or 0.1 μM. Here is the method: (§2) Phagokinetic activity is measured by the ability of cells to ingest foreign particles while moving. Cell motility can be estimated as the area of a phagokinetic track on gold sol particle-coated plates as previously described {Albrecht-Buehler, Cell, 11:395 (1977)}. A uniform coating of gold particles is prepared on glass coverslips precoated with bovine serum albumin, and coverslips are rinsed repeatedly to remove non-adhering or loosely-adhering gold particles. Freshly-prepared neutrophils or tumor cells detached from culture are placed in a Petri dish containing the gold sol-coated plate, and incubated for about 2 hours (for human neutrophils) or about 18 hours (for tumor cells). The coverslips are fixed for 1 hour in a 4% formaldehyde solution in phosphate-buffered saline (PBS) and mounted on microscope slides. The phagokinetic tracks are observed on a television connected to a light microscope (Nikon, Tokyo, Japan). Tracks on the television are transferred to translucent sheets, which are then photocopied. Phagokinetic activity is quantitated by cutting and weighing the swept area in the copy.
Cell motility was estimated as the area of phagokinetic track on gold sol particle-coated plates as previously described {Albrecht-Buehler, Cell, 11:395 (1977)}. […] Phagokinetic activity was quantitated by cutting and weighing the swept area in the copy. […]

The subject of data set [5] is human neutrophils. Description: Phagokinetic activity of human neutrophils on gold sol-coated plates. The class given is cell-based. The following applies: for Cleared area: 2 hours, mean ± S.D., control 6.3 ± 2.3; for Reduction in phagokinetic activity of human neutrophils: Table VII, in words. Here is the method:
as §2
Cell motility was estimated as the area of phagokinetic track on gold sol particle-coated plates as previously described {Albrecht-Buehler, Cell, 11:395 (1977)}. A uniform coating of gold particles was prepared on glass coverslips precoated with bovine serum albumin, and the coverslips were rinsed repeatedly to remove non-adhering or loosely-adhering gold particles. Freshly-prepared neutrophils or tumor cells detached from culture were placed in a Petri dish containing the gold sol-coated plate, and incubated for 2 hours (for human neutrophils) or 18 hours (for tumor cells). The coverslips were fixed for 1 hour in 4% formaldehyde solution in phosphate-buffered saline (PBS) and mounted on microscope slides. The phagokinetic tracks were observed on a television connected to a light microscope (Nikon, Tokyo, Japan). Tracks on the television were transferred to translucent sheets, which were then photocopied. Phagokinetic activity was quantitated by cutting and weighing the swept area in the copy.
**mean ± S.D. Freshlyprepared neutrophils (1 × 10^4
cell/plate) were seeded on a coverslip precoated with gold sol particles
in the presence or absence of test compound. 2 hours later, incubation wa
terminated by adding 200 μl of 10% formaldehyde and the cleared area
was estimated as described in the text.

Data set [6] deals with B16/F1 cells. Description: Uptake and metabolic conversion of 3H-SPN and 14C-TMS in B16/F1 cells. The class given is in vitro ADME, mouse. The following applies: for Incorporation into B16/F1 cells: 3H-labeled SPN, 14C-labeled TMS; for Metabolic conversion: B16/F1 cells. The text has this:
FIGS. 12A and 12B depict the time-course uptake of ^3 H-SPN (FIG. 12A) and ^14 C-TMS (FIG. 12B) by B16/F1 cells. The ordinate represents % radioactivity taken up by B16/F1 cells and the abscissa represents time in hours.
FIGS. 13A-13C depict the time-course changes in labeling of various SPN derivatives after addition of ^3 H-SPN to B16/F1 cells:
FIG. 13A: thin-layer chromatography (TLC) of lipids separated from Folch's lower phase;
FIG. 13B: TLC of lipids separated from Folch's upper phase followed by incubation with ^14 C-TMS and extraction;
FIG. 13C: TLC of lipids separated from Folch's upper phase.
Lane 1, 0 minute. Lane 2, 10 minutes. Lane 3, 30 minutes. Lane 4, 1 hour. Lane 5, 2 hours. Lane 6, 4 hours. Lane 7, 20 hours. CER represents ceramide; CMH represents ceramide monohexoside; PE represents phosphatidyl-ethanolamine; SM represents sphingomyelin; TMS represents N,N,N-trimethylsphingosine; SPN represents sphingosine; SPN-1-P represents sphingosine-1-phosphate; and ORG represents the origin.
In addition, the uptake and metabolic conversion of SPN vs. TMS was investigated. […] Rapid conversion of SPN into sphingosine-1-phosphate is clearly indicated by the appearance of bands corresponding to SPN-1-P prior to conversion into Cer. The SPN-1-P peak appeared after 10 minutes incubation, whereas the Cer peak appeared after 1 hour incubation.

The mark [7] stands for this setting: 3H-SPN, in the presence of D-PDMP.

One may read the viability as the share of living cells, or the viability signal relative to a control.

Entries after “also recorded” stand apart in the source; their conditions may differ.

Regarding `CCCCCCCCCCCCC/C=C/[C@@H](O)[C@@H](N)CO` [SPN, sphingosine], the “Toxicity” value in the data set on B16/F1 melanoma cells is on record as “very toxic”. Also, the viability at 1 h, 50 µM in data set [1] was 21%. In the data set with human neutrophils [2], the “Toxicity” value is given as “very toxic”. For the same molecule, the viability at 1 h, 45 µM in data set [3] is 5%. In the data set on mouse 3T3 cell, the “Mouse 3T3 cell growth” value is listed as “stimulation of mouse 3T3 cell growth”. In addition, the “Area cleared by tumor cells” value in the data set on B16/F1 cells [4] was “reduced the area cleared by tumor cells”. Further, the Cleared area with human neutrophils [5] (0.45 μM) was 5.2 ± 2.0 × 10^3 μm^2. Also, in the data set with B16/F1 cells [6] (setting [7]), the “Appearance of Cer peak after incubation with SPN” value was 1 h and the “Appearance of SPN-1-P peak after incubation with SPN” value is 10 min. In addition, in the data set on B16/F1 cells [6], the “Incorporation into B16/F1 cells” value is reported as “rapidly incorporated”; the “Metabolic conversion” value was “rapidly converted into SPN-1-P and ceramide; also recorded: can be converted to SPN-1-P”.
Turning to `CCCCCCCCCCCCC/C=C/[C@@H](O)[C@@H](N)COP(=O)(O)O` [SPN-1-P, sphingosine-1-phosphate], the “Toxicity” value with B16/F1 melanoma cells and in the data set with human neutrophils [2] was “weak toxicity” in each case. Besides, the “Cytotoxicity, comparison” value in the data set on B16/F1 melanoma cells (concentration not given) is “far less cytotoxic than SPN, DMS, or TMS”. Besides, in data set [1], the viability at 1 h, 50 µM was 72%. Further, the viability at 1 h, 45 µM in data set [3] came out at 98%. For the same molecule, in the data set with B16/F1 cells [4], the “Area cleared by tumor cells” value is “greatly reduced”. For the same molecule, the Cleared area was 5.5 ± 2.7 × 10^3 μm^2 in the data set on human neutrophils [5] (0.45 μM), 5.4 ± 2.4 × 10^3 μm^2 with human neutrophils [5] (1.0 μM) and 3.5 ± 1.4 × 10^3 μm^2 in the data set on human neutrophils [5] (4.5 μM). Also, the “Reduction in phagokinetic activity of human neutrophils” value in the data set with human neutrophils [5] was “most striking”.
For `CCCCCCCCCCCCC/C=C/[C@@H](O)[C@H](CO)[N+](C)(C)C` [TMS, N,N,N-trimethylsphingosine], the Cleared area in the data set on human neutrophils [5] (0.45 μM) is reported as 5.4 ± 2.7 × 10^3 μm^2. Further, the Cleared area in the data set on human neutrophils [5] (1.0 μM) is on record as 3.6 ± 1.5 × 10^3 μm^2. In addition, the “Reduction in phagokinetic activity of human neutrophils” value in the data set on human neutrophils [5] is “most striking”. Also, in the data set with B16/F1 cells [6], the “Incorporation into B16/F1 cells” value was “rapidly incorporated” and the “Metabolic conversion” value is recorded as “unchanged regardless of incubation time; also recorded: cannot be phosphorylated”.
